The text below walks through data of patent US20230083973A1, “SUBSTITUTED CYCLOPROPYL-2,2'-BIP[…], ANALOGUES THEREOF, AND METHODS USING SAME” (priority 2019, published 2023).

One test concerns HBsAg. The experiment in a line: HBsAg assay: inhibition of HBsAg in HepG2.2.15 cells (chemiluminescence immunoassay of supernatant). Particulars: Hepatitis B virus, HepG2.2.15, 144 h, read-out: sAg EC50, HepG2.2.15 cells; HBsAg in supernatant at day 6 after exposure to compound; 0.5% DMSO. Type of test: cell-based, hepatitis B virus. In outline: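 HepG2.2.15 cells treated with serially diluted compounds (0.5% DMSO), medium and compound refreshed after 2–3 days, supernatant harvested at day 6. Secreted HBsAg measured by chemiluminescence immunoassay; EC50 from dose-response curves, with parallel CellTiter-Glo viability at 5,000 cells/well.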
Regarding `COCCCn1cnc2cc([C@@H]3C[C@H]3c3cnc(-c4ncccn4)nc3)cc(F)c21` (relative stereo) [Example 273, trans-5-(2-([2,2′-Bipyrimidin]-5-yl)cyclopropyl)-7-fluoro-1-(3-methoxypropyl)-1H-benzo[d]imidazole], the EC50 was 43 nM.

As to `COc1ccc([C@@H]2C[C@H]2c2cnc(-c3ncccn3)nc2)c(F)c1` (relative stereo) [Example 1, trans-5-(2-(2-Fluoro-4-methoxyphenyl)cyclopropyl)-2,2′-bipyrimidine], the EC50 was determined as 200 nM. Consider `Fc1ccc(C2CC2c2ccnc(-c3ncccn3)n2)cc1F` (single isomer, unassigned) [Example 5, trans-4-(2-(3,4-Difluorophenyl)cyclopropyl)-2,2′-bipyrimidine], for which the EC50 came out at 5000 nM. As for `c1cnc(-c2ncc([C@@H]3C[C@H]3c3cnc4ccccn34)cn2)nc1` (relative stereo) [Example 170, trans-3-(2-([2,2′-Bipyrimidin]-5-yl)cyclopropyl)imidazo[1,2-a]pyridine], the EC50 was found to be 1000 nM.

For the compound `COc1ccc([C@@H]2C[C@H]2c2cnc(-c3ncccn3)nc2)c2cccnc12` (relative stereo) [Example 173, trans-5-(2-([2,2′-Bipyrimidin]-5-yl)cyclopropyl)-8-methoxyquinoline], the EC50 was determined as 540 nM.

With `COc1cc([C@@H]2C[C@H]2c2cnc(-c3ncccn3)nc2)ccc1C(F)(F)F` (relative stereo) [Example 153, trans-5-(2-(3-Methoxy-4-(trifluoromethyl)phenyl)cyclopropyl)-2,2′-bipyrimidine], the EC50 stood at 190 nM. Same read-out and setting: next, `COc1ccc([C@H]2C[C@H]2c2cnc(-c3ncccn3)nc2)c(F)c1` (relative stereo) [Example 73, cis-5-(2-(2-Fluoro-4-methoxyphenyl)cyclopropyl)-2,2′-bipyrimidine]: 9000 nM.

As to `COCCOC1CN(c2cc([C@@H]3C[C@H]3c3cnc(-c4ncccn4)nc3)cc(F)c2F)C1` (relative stereo) [Example 212, trans-5-(2-(3,4-Difluoro-5-(3-(2-methoxyethoxy)azetidin-1-yl)phenyl)cyclopropyl)-2,2′-bipyrimidine], the EC50 was 30 nM. Consider `Cc1nc2c(F)cc([C@@H]3C[C@H]3c3cnc(-c4ncccn4)nc3)cc2s1` (relative stereo) [Example 272, trans-6-(2-([2,2′-Bipyrimidin]-5-yl)cyclopropyl)-4-fluoro-2-methylbenzo[d]thiazole], for which the EC50 turned out to be 73 nM. The same measure, in the same setting: then `COc1c(Cl)ccc(C2CC2c2cnc(-c3ncccn3)nc2)c1Cl` (single isomer, unassigned) [Example 132, trans-5-(2-(2,4-Dichloro-3-methoxyphenyl)cyclopropyl)-2,2′-bipyrimidine], with 120 nM.

On to `COc1ccc(C2CC2c2cnc(-c3ncccn3)nc2)cc1OC` (single isomer, unassigned) [Example 31, trans-5-(2-(3,4-Dimethoxyphenyl)cyclopropyl)-2,2′-bipyrimidine], for which the EC50 was 330 nM. Same read-out and setting: next, `c1cnc(-c2ncc([C@@H]3C[C@H]3c3ccc4ccccc4c3)cn2)nc1` (relative stereo) [Example 167, trans-5-(2-(Naphthalen-2-yl)cyclopropyl)-2,2′-bipyrimidine]: 180 nM.

Staying with this test, now noted: read-out: sAg EC50; HepG2.2.15 cells; HBsAg in supernatant at day 6 after exposure to compound; 0.5% DMSO.
Consider `COc1cc(C2CC2c2cnc(-c3ncccn3)nc2-c2ccccc2)ccc1F` (single isomer, unassigned) [Example 142, trans-5-(2-(4-Fluoro-3-methoxyphenyl)cyclopropyl)-4-phenyl-2,2′-bipyrimidine], for which the EC50 came out at 5000 nM.

As for `O[C@H]1CCN(c2cc(C3CC3c3cnc(-c4ncccn4)nc3)cc(F)c2F)C1` (single isomer, unassigned) [Example 106], the EC50 is 85 nM. Consider `Fc1ccc(C2CC2c2cnc(-c3ncccn3)nc2)cc1OCC(F)F` (single isomer, unassigned) [Example 27, trans-5-(2-(3-(2,2-Difluoroethoxy)-4-fluorophenyl)cyclopropyl)-2,2′-bipyrimidine], for which the EC50 was found to be 630 nM. For `CC(=O)N1CC[C@H](Nc2cc(C3CC3c3cnc(-c4ncccn4)nc3)cc(F)c2F)C1` (single isomer, unassigned) [Example 224], the EC50 was 5000 nM. On the same count and under the same terms, then `CO[C@H]1CCN(c2cc(C3CC3c3cnc(-c4ncccn4)nc3)cc(Cl)c2F)C1` (single isomer, unassigned) [Example 117], with 11 nM.

As for `CC(=O)N1CC[C@H](Nc2cc(C3CC3c3cnc(-c4ncccn4)nc3)cc(F)c2F)C1` (single isomer, unassigned) [Example 225], the EC50 is 350 nM. On the same count and under the same terms, next, `CO[C@H]1CCN(c2cc(C3CC3c3cnc(-c4ncccn4)nc3)ccc2F)C1` (single isomer, unassigned) [Example 67]: 180 nM. Turning to `COCCCn1ncc2c(C3CC3c3cnc(-c4ncccn4)nc3)cc(F)c(F)c21` (single isomer, unassigned) [Example 265, trans-4-(2-([2,2′-Bipyrimidin]-5-yl)cyclopropyl)-6,7-difluoro-1-(3-methoxypropyl)-1H-indazole], the EC50 turned out to be 61 nM. On the same count and under the same terms, next, `COC1CN(c2cc(C3CC3c3cnc(-c4ncccn4)nc3)ccc2F)C1` (single isomer, unassigned) [Example 48, trans-5-(2-(4-Fluoro-3-(3-methoxyazetidin-1-yl)phenyl)cyclopropyl)-2,2′-bipyrimidine]: 32 nM; `COCCOc1cc(C2CC2c2cnc(-c3ncccn3)nc2)ccc1F` (single isomer, unassigned) [Example 22, trans-5-(2-(4-Fluoro-3-(2-methoxyethoxy)phenyl)cyclopropyl)-2,2′-bipyrimidine]: 59 nM. The same measure, in the same setting: next, `COc1cc(C2CC2c2cnc(-c3ncccn3)nc2)cc(F)c1Cl` (single isomer, unassigned) [Example 45, trans-5-(2-(4-Chloro-3-fluoro-5-methoxyphenyl)cyclopropyl)-2,2′-bipyrimidine]: 270 nM.

As to `CCc1nc(-c2ncccn2)ncc1C1CC1c1ccc(F)c(OC)c1` (single isomer, unassigned) [Example 76, trans-4-Ethyl-5-(2-(4-fluoro-3-methoxyphenyl)cyclopropyl)-2,2′-bipyrimidine], the EC50 came out at 2000 nM. `CCc1nc(-c2ncccn2)ncc1C1CC1c1ccc(F)c(OC)c1` (single isomer, unassigned) [Example 77, trans-4-Ethyl-5-(2-(4-fluoro-3-methoxyphenyl)cyclopropyl)-2,2′-bipyrimidine]: the EC50 turned out to be 5000 nM.

As to `Fc1cc(C2CC2c2cnc(-c3ncccn3)nc2)cc(O[C@@H]2CCOC2)c1F` (single isomer, unassigned) [Example 248], the EC50 stood at 1000 nM. On to `COc1cc(C2CC2c2cnc(-c3ncccn3)nc2-c2ccccc2)ccc1F` (single isomer, unassigned) [Example 143, trans-5-(2-(4-Fluoro-3-methoxyphenyl)cyclopropyl)-4-phenyl-2,2′-bipyrimidine], for which the EC50 was found to be 120 nM. In the case of `COc1cc(F)cc(C2CC2c2cnc(-c3ncccn3)nc2)c1` (single isomer, unassigned) [Example 112, trans-5-(2-(3-Fluoro-5-methoxyphenyl)cyclopropyl)-2,2′-bipyrimidine], the EC50 was found to be 500 nM. On to `Fc1ccc(C2CC2c2cnc(-c3ncccn3)nc2)cc1OC(F)(F)F` (single isomer, unassigned) [Example 40, trans-5-(2-(4-Fluoro-3-(trifluoromethoxy)phenyl)cyclopropyl)-2,2′-bipyrimidine], for which the EC50 was 110 nM. The same measure, in the same setting: then `Fc1ccc(C2CC2c2cnc(-c3ncccn3)nc2)cc1N1CCCCC1` (single isomer, unassigned) [Example 195, trans-5-(2-(4-Fluoro-3-(piperidin-1-yl)phenyl)cyclopropyl)-2,2′-bipyrimidine], with 3000 nM; and `Cc1cc(C2CC2c2cnc(-c3ncccn3)nc2)cc(OCC2CC2)c1Cl` (single isomer, unassigned) [Example 49, trans-5-((2-(4-Chloro-3-(cyclopropylmethoxy)-5-methylphenyl)cyclopropyl)-2,2′-bipyrimidine], with 170 nM. On to `CC(=O)Nc1cc(C2CC2c2cnc(-c3ncccn3)nc2)ccc1Cl` (single isomer, unassigned) [Example 206, trans-N-(5-(2-([2,2′-Bipyrimidin]-5-yl)cyclopropyl)-2-chlorophenyl)acetamide], for which the EC50 was found to be 820 nM. Regarding `COc1c(Cl)ccc(C2CC2c2cnc(-c3ncccn3)nc2)c1C` (single isomer, unassigned) [Example 71, trans-5-(2-(4-Chloro-3-methoxy-2-methylphenyl)cyclopropyl)-2,2′-bipyrimidine], the EC50 worked out at 200 nM.

On to `COCCOc1ccc(C2CC2c2cnc(-c3ncccn3)nc2)cc1F` (single isomer, unassigned) [Example 24, trans-5-(2-(3-Fluoro-4-(2-methoxyethoxy)phenyl)cyclopropyl)-2,2′-bipyrimidine], for which the EC50 amounted to 150 nM. In the case of `Fc1cc(C2CC2c2cnc(-c3ncccn3)nc2)cc(N2CC3(CCOCC3)C2)c1F` (single isomer, unassigned) [Example 136, trans-2-(5-(2-([2,2′-Bipyrimidin]-5-yl)cyclopropyl)-2,3-difluorophenyl)-7-oxa-2-azaspiro[3.5]nonane], the EC50 came to 920 nM. With `COc1c(Cl)ccc(C2CC2c2cnc(-c3ncccn3)nc2)c1F` (single isomer, unassigned) [Example 55, trans-5-(2-(4-Chloro-2-fluoro-3-methoxyphenyl)cyclopropyl)-2,2′-bipyrimidine], the EC50 is 1000 nM. Same read-out and setting: then `Cc1cc(C2CC2c2cnc(-c3ncccn3)nc2)cc(OCC2CC2)c1Cl` (single isomer, unassigned) [Example 50, trans-5-((2-(4-Chloro-3-(cyclopropylmethoxy)-5-methylphenyl)cyclopropyl)-2,2′-bipyrimidine], with 2000 nM.

One may read the EC50 as the midpoint of the concentration-response curve.
